Laboratory results reported in ChEMBL document CHEMBL1130983, “New acetylene based histamine H3 receptor antagonists derived from the marine natural product verongamine” (Bioorg Med Chem Lett, 1998).

Key:
[1] = target: T1, Histamine H3 receptor (Rattus norvegicus, UniProt Q9QYN8); assay: Antagonistic activity was evaluated against histamine H3 receptor using [3H]- N-alpha-methylhistamine as radioligand in experiment 2; type: functional
[2] = target: T1, Histamine H3 receptor; assay: Inhibition of [3H]- N-alpha-methylhistamine from histamine H3 receptor
[3] = organism: Cavia porcellus; assay: In vitro activity on K+ induced R-alpha methyl histamine mediated inhibition of norepinephrine release from guinea pig cardiac synaptosomes; type: functional
[4] = organism: Rattus norvegicus; assay: Effective dose was evaluated for blood brain penetration using ex vivo binding techniques; type: functional

T1 sequence (Q9QYN8 whole entry): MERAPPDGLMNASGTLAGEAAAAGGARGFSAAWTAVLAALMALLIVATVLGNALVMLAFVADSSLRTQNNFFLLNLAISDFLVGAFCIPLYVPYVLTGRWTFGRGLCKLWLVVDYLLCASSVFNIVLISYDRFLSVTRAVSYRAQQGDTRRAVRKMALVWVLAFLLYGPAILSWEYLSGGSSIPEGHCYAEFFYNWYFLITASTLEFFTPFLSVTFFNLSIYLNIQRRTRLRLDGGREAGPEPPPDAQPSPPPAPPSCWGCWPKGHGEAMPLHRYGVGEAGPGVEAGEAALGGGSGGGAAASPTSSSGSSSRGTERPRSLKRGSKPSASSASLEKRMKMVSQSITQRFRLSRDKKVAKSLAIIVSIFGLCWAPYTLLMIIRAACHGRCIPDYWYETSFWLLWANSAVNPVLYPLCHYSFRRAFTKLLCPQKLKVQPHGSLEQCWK

Row | Structure (SMILES) | Ki [1] [nM] | Ki [2] [nM] | Release [3] [%] | ED50 [4] [mg/kg]
1 | S=C(NC1CCCCC1)N1CCC(c2cnc[nH]2)CC1 [THIOPERAMIDE] | 1.54 |  |  | 
2 | Cn1cncc1CCN |  | 1 | 106 | 
3 | C(#CCCC1CCCC1)CCc1c[nH]cn1 |  |  | 111 | 0.48
4 | C(#CCCC1CCCCC1)CCc1c[nH]cn1 |  |  | 122 | 0.43
5 | COc1ccc(C/C(=N\O)C(=O)NCCc2c[nH]cn2)cc1Br [VERONGAMINE] |  | 0.5 |  | 
